In patent US8362000B2, “Azetidinyl diamides as monoacylglycerol lipase inhibitors” (Janssen Pharmaceutica NV, priority 2009, dated 2013):
Where a chain is given by its changes, count along the chain named.

What was measured:
mutant MGL = molecular target: T1, mutant MGL (Homo sapiens, UniProt Q99685, L169S/L176S); assay: MGL ThermoFluor assay - mutant; type: binding; details: ThermoFluor concentration-response, read-out: MGL mutant ThermoFluor Kd
T1 sequence (Q99685 1-303 L169S/L176S): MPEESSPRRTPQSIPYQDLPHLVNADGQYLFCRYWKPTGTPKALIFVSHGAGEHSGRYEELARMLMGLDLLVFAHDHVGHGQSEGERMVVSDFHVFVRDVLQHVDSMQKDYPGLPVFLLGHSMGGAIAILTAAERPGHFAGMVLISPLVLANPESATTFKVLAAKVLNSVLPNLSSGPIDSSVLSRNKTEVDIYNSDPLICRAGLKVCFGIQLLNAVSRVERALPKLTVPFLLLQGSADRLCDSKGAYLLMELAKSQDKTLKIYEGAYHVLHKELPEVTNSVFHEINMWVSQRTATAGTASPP

MGL = molecular target: T2, MGL (Rattus norvegicus, UniProt Q8R431); assay: 2-AG accumulation assay in rat brain homogenate; type: biochemical; details: rat brain homogenate; compound 1 μM; 2-AG accumulation as percent of vehicle; read-out: Rat Brain 2AG % VehCntrl (%) @ 1 μM
T2 construct: one g rat brain was homogenized using a Polytron homogenizer; from tissue; host or cells: rat brain homogenate
T2 sequence (Q8R431 1-303): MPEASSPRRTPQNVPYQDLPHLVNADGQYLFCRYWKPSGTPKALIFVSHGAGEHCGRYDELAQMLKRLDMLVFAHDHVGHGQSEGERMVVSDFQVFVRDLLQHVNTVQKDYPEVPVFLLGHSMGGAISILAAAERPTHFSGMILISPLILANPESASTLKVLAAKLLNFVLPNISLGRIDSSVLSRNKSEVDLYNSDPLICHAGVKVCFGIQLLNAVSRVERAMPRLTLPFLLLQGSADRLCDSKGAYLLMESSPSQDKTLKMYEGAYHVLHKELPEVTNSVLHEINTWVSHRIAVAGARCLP

[1] = molecular target: T3, purified wild type MGL (wt-MGLL 6H-11-313) (Homo sapiens, UniProt Q99685)
T3 sequence (Q99685 1-303): T1 sequence (Q99685 1-303 L169S/L176S) with S169L, S176L

[2] = system: CFA-induced paw radiant heat hypersensitivity; assay: CFA-induced paw radiant heat hypersensitivity; type: in vivo, rat; details: Rattus norvegicus, po; 30 mg/kg p.o., HPβCD, group mean values, last time point 180 or 300 min; read-out: CFA thermal hypersensitivity Method 1: peak % reversal

Structure (SMILES)	Kd (mutant MGL) [nM]	2-AG accumulation, % of vehicle control at 1 µM (MGL) [%]	IC50 [1] [nM]	inhibition in vivo at 30 mg/kg [2] [%]
O=C(c1ccc2c(ccn2-c2ccc(F)c(F)c2)c1)N1CC(N2CCN(C(=O)c3nccs3)CC2)C1 [Cpd 1362, 1-(3,4-Difluorophenyl)-5-({3-[4-(1,3-thiazol-2-ylcarbonyl)piperazin-1-yl]azetidin-1-yl}carbonyl)-1H-indole]	1	635	< 5	186
O=C(c1ccc2c(ccn2-c2ccc(F)c(F)c2)c1)N1CC(N2CCN(C(=O)c3cscn3)CC2)C1 [Cpd 1363, 1-(3,4-Difluorophenyl)-5-({3-[4-(1,3-thiazol-4-ylcarbonyl)piperazin-1-yl]azetidin-1-yl}carbonyl)-1H-indole]	14	628	< 5	69.7
O=C(c1ccc2c(ccn2-c2ccc(F)cc2F)c1)N1CC(N2CCN(C(=O)c3nccs3)CC2)C1 [Cpd 1364, 1-(2,4-Difluorophenyl)-5-({3-[4-(1,3-thiazol-2-ylcarbonyl)piperazin-1-yl]azetidin-1-yl}carbonyl)-1H-indole]	1	944	< 5	17
O=C(c1ccc2c(ccn2-c2ccc(F)c(F)c2)c1)N1CC(N2CCN(C(=O)c3ccc[nH]3)CC2)C1 [Cpd 1366, 1-(3,4-Difluorophenyl)-5-({3-[4-(1H-pyrrol-2-ylcarbonyl)piperazin-1-yl]azetidin-1-yl}carbonyl)-1H-indole]	12	586	< 5	47.1
